Data set [1] has as its system mice on 75%-CDE diet (NASH, fibrosis and HCC). Description: Prevention study: CDE diet-induced NASH in mice, proglumide in drinking water from start of diet. Type of data set: in vivo, mouse (female C57BL/6). Here is the method: All mouse studies were performed in an ethical fashion and approved by the Institutional Animal Care and Use Committee, protocol #2016-1193 for animal research by Georgetown University. Female C57BL/6 mice (body weight of >20 g) were obtained from Charles River Laboratory (Germantown, MD). Mice were housed with five per cage with filter-top cages and housing light cycled q12 hrs; on-off. […] The first group received a modified Choline Deficient Diet with 75% Ethionine supplemented diet (CDE) as previously described by […] et al. “A modified choline-deficient, ethionine-supplemented diet reduces morbidity and retains a liver progenitor cell response in mice,” Dis Model Mech 8:1635-1641 (2015). […] The control mice received the same diet with choline. Both diets contained casein as the major source of protein and lard (saturated fat) as the primary source of fat. The diet composition is shown in Table 1 and is very similar to the Western diet (Roberts et al. “Western diet-induced hepatic steatosis and alterations in the liver transcriptome in adult Brown-Norway rats,” BMC Gastroenterol. 15:151 (2015)) where the diet consists of a high fat and high sugar and is often used in experimental animal diets to induce NAFLD. The food intake was measured by weighing food consumed to assure mice were eating equal amounts of food in each group, and animals ate ad libitum. Some mice on both diets were treated with the CCK receptor antagonist proglumide (Tocris Bioscience, Bristol, UK) at a concentration of 0.1 mg/ml and the estimated amount ingested per mouse was 30 mg/kg/d that was previously shown to block the CCK receptor (Smith et al. “Cholecystokinin receptor antagonist halts progression of pancreatic cancer precursor lesions and fibrosis in mice,” Pancreas 43:1050-1059 (2014)). Another cohort received untreated drinking water. The study design included two different parts: a “prevention study” and a “reversal study” (FIG. 1). In the prevention study, the goal was to determine if treatment with proglumide could prevent NASH, fibrosis and HCC if started at the same time of the initiation of the high fat CDE diet. Initially mice were randomized into one of four treatment group (FIG. 1). Sixty-five mice received the 75%-CDE diet and untreated drinking water (CDE/Reg). Of these (N=5 each) mice were ethically euthanized and livers dissected and analyzed histologically to assess for evidence of NASH at weeks 4 and 8. When NASH was becoming apparent, mice were continued on this diet and some (N=10) were euthanized at week 12 and some (N=25) were euthanized at week 18. Five mice died in the CDE/Reg diet in the first 12 weeks. A parallel cohort of mice (N=25) were also given the CDE diet but their drinking water was treated with the CCK-receptor antagonist proglumide. In this cohort, some (N=10) were euthanized, blood drawn, and liver examined histologically at week 12. The remainder (N=15) were euthanized and examined at week 18 to compare to the CDE/Reg group. Twenty mice each were treated with the control diet, and half (N=10) in this group received proglumide water and half received untreated drinking water. Half of the control mice were euthanized at the first time point of 12 weeks and the remainder was euthanized at the end of the experiment at 18 weeks. Subgroups of mice were ethically euthanized after CO2 asphyxiation and cervical dislocation at one of 4 different time points: weeks 4, 8, 12, or 18. Blood was collected by pericardiac puncture and centrifuged. Serum was analyzed by VRL Laboratories (Gaithersburg, MD). The following liver tests were evaluated and the normal range for mouse is shown: Alkaline phosphatase (35-275 u/L); Alanine aminotransferase, ALT (17-129 u/L); Aspartate aminotransferase, AST (46-392 u/L); and total bilirubin (0-0.9 mg/dL). The liver tissues were fixed in 4% paraformaldehyde, paraffin embedded, and 8 μm sections were cut. Mounted sections were stained with Hematoxylin & Eosin or Masson's trichrome. […]

Data set [2] relates to mice on CDE diet with established NASH. Description: Reversal (recovery) study: established NASH after 12 weeks of CDE diet, then proglumide for 6 weeks. It is filed as in vivo, mouse (female C57BL/6). Here is the method: All mouse studies were performed in an ethical fashion and approved by the Institutional Animal Care and Use Committee, protocol #2016-1193 for animal research by Georgetown University. Female C57BL/6 mice (body weight of >20 g) were obtained from Charles River Laboratory (Germantown, MD). Mice were housed with five per cage with filter-top cages and housing light cycled q12 hrs; on-off. […] The first group received a modified Choline Deficient Diet with 75% Ethionine supplemented diet (CDE) as previously described by […] et al. “A modified choline-deficient, ethionine-supplemented diet reduces morbidity and retains a liver progenitor cell response in mice,” Dis Model Mech 8:1635-1641 (2015). […] The control mice received the same diet with choline. Both diets contained casein as the major source of protein and lard (saturated fat) as the primary source of fat. The diet composition is shown in Table 1 and is very similar to the Western diet (Roberts et al. “Western diet-induced hepatic steatosis and alterations in the liver transcriptome in adult Brown-Norway rats,” BMC Gastroenterol. 15:151 (2015)) where the diet consists of a high fat and high sugar and is often used in experimental animal diets to induce NAFLD. The food intake was measured by weighing food consumed to assure mice were eating equal amounts of food in each group, and animals ate ad libitum. Some mice on both diets were treated with the CCK receptor antagonist proglumide (Tocris Bioscience, Bristol, UK) at a concentration of 0.1 mg/ml and the estimated amount ingested per mouse was 30 mg/kg/d that was previously shown to block the CCK receptor (Smith et al. “Cholecystokinin receptor antagonist halts progression of pancreatic cancer precursor lesions and fibrosis in mice,” Pancreas 43:1050-1059 (2014)). Another cohort received untreated drinking water. The reversal study, took mice that had been on the CDE diet and untreated water (CDE/Reg) for 12 weeks (a time determined to result in the mice having NASH histologically and biochemical hepatitis). Mice were randomly allocated to one of two groups at 12 weeks. The first group (N=15) continued on the CDE diet and untreated water and the second group (N=15) also continued on the CDE diet but then received proglumide in the drinking water at the same concentration as the prevention study (0.1 mg/ml). The purpose of the reversal study was to see if proglumide could reverse any of the histologic and biochemical abnormalities of NASH from the 12-week CDE/regular water diet. The other group continued on the CDE diet with untreated drinking water. The animals in each group were weighed weekly. At the termination of the experiment the animal body weight and liver weight were recorded. Subgroups of mice were ethically euthanized after CO2 asphyxiation and cervical dislocation at one of 4 different time points: weeks 4, 8, 12, or 18. Blood was collected by pericardiac puncture and centrifuged. Serum was analyzed by VRL Laboratories (Gaithersburg, MD). The following liver tests were evaluated and the normal range for mouse is shown: Alkaline phosphatase (35-275 u/L); Alanine aminotransferase, ALT (17-129 u/L); Aspartate aminotransferase, AST (46-392 u/L); and total bilirubin (0-0.9 mg/dL). The liver tissues were fixed in 4% paraformaldehyde, paraffin embedded, and 8 μm sections were cut. Mounted sections were stained with Hematoxylin & Eosin or Masson's trichrome. A Liver pathologist blinded to the treatments and time period scored tissues for inflammation, fibrosis, steatosis, and whether there was evidence of dysplastic nodules or cancer (Table 2). Histology was scored for grade of inflammation (0-3), fibrosis (0-4), steatosis (0-3), balloon degeneration (0-2) and dysplasia or cancer (0-2). For analysis, a NASH score was defined as the combination of the steatosis and the balloon degeneration score. […]

In data set [3] the test system is mice on control high fat diet. Description: Control high fat diet with choline, proglumide-treated versus untreated water. Type of data set: in vivo, mouse (female C57BL/6). As to the method: All mouse studies were performed in an ethical fashion and approved by the Institutional Animal Care and Use Committee, protocol #2016-1193 for animal research by Georgetown University. Female C57BL/6 mice (body weight of >20 g) were obtained from Charles River Laboratory (Germantown, MD). Mice were housed with five per cage with filter-top cages and housing light cycled q12 hrs; on-off.
Mice were fed one of two custom high fat diets from MP Biomedicals, LLC (Solon, Ohio). The first group received a modified Choline Deficient Diet with 75% Ethionine supplemented diet (CDE) as previously described by Passman et al. “A modified choline-deficient, ethionine-supplemented diet reduces morbidity and retains a liver progenitor cell response in mice,” Dis Model Mech 8:1635-1641 (2015). […] The control mice received the same diet with choline. Both diets contained casein as the major source of protein and lard (saturated fat) as the primary source of fat. […] The food intake was measured by weighing food consumed to assure mice were eating equal amounts of food in each group, and animals ate ad libitum. […]
Subgroups of mice were ethically euthanized after CO2 asphyxiation and cervical dislocation at one of 4 different time points: weeks 4, 8, 12, or 18. […] Serum was analyzed by VRL Laboratories (Gaithersburg, MD). The following liver tests were evaluated and the normal range for mouse is shown: Alkaline phosphatase (35-275 u/L); Alanine aminotransferase, ALT (17-129 u/L); Aspartate aminotransferase, AST (46-392 u/L); and total bilirubin (0-0.9 mg/dL).
The liver tissues were fixed in 4% paraformaldehyde, paraffin embedded, and 8 μm sections were cut. […] A Liver pathologist blinded to the treatments and time period scored tissues for inflammation, fibrosis, steatosis, and whether there was evidence of dysplastic nodules or cancer (Table 2). Histology was scored for grade of inflammation (0-3), fibrosis (0-4), steatosis (0-3), balloon degeneration (0-2) and dysplasia or cancer (0-2). […]

The conditions of data set [4]: PIVENS trial; cited from earlier work.
Setting [5] is: CDE/Prog vs CDE/Reg, weeks 12 and 18.
[6] abbreviates: CDE/Reg 12 weeks then proglumide water 6 weeks.

Entries after “also recorded” stand apart in the source; their conditions may differ.

Regarding `CCCN(CCC)C(=O)C(CCC(=O)O)NC(=O)c1ccccc1` (centres unmarked) [proglumide], in data set [1] (CDE diet + proglumide 0.1 mg/ml in drinking water from day 0 (Prevention), vs CDE/Reg), the “serum AST levels” value is “restored to near normal; also recorded: at or near normal levels”. The “ALT serum levels, week 12” value in data set [1] (CDE diet + proglumide water from day 0, week 12) is “did not prevent elevation”. Besides, the “ALT serum levels, week 18” value in data set [1] (CDE diet + proglumide water from day 0, week 18) is on record as “did decrease ALT values; also recorded: able to prevent this increase only after 18 weeks”. In addition, the serum total bilirubin entry in data set [1] (CDE diet + proglumide water from day 0, weeks 12 and 18, vs CDE/Reg) is listed as “completely prevented; also recorded: prevented bilirubin level increases”. Also, in data set [1] (CDE diet + proglumide water, vs CDE/Reg), the “alkaline phosphatase blood levels” value is “not prevented or reversed; also recorded: did not decrease alkaline phosphatase”. Moreover, in data set [1] (setting [5]), the “histologic features/changes of NASH” value was “significantly decreased; also recorded: prevented”, the histologic fibrosis score entry is on record as “prevented; also recorded: decreased fibrosis”, the histologic inflammation score result is listed as “prevented; also recorded: marked decrease in inflammation; also recorded: decreased inflammation” and the histologic steatosis score entry was “prevented; also recorded: decreased steatosis”. Further, the balloon degeneration result in data set [1] (CDE/Prog, week 12 liver histology) is reported as “minimal or no balloon degeneration”. In addition, the “mice with dysplastic nodules or HCC” value in data set [1] (week 18, CDE/Prog prevention arm N=15, CDE/Reg 8 of 23) is “none and no dysplasia or HCC”. For the same compound, the “serum AST levels” value in data set [2] (CDE/Reg 12 weeks then CDE/Prog 6 weeks (Recovery)) is “significantly decreased”. For the same compound, the “HCC or dysplastic nodules” value in data set [2] (CDE/Reg 12 weeks then CDE/proglumide 6 weeks, N=15, week 18) is “no evidence of HCC or dysplastic nodules and none”. Further, in data set [2] (setting [6]), the alkaline phosphatase levels result was “not prevented or reversed” and the serum total bilirubin result is listed as “returned to the normal range; also recorded: decreased bilirubin”. In addition, in data set [2] (Recovery vs CDE/Reg for 18 full weeks), the ALT serum levels result was “this difference was not significant”. Besides, in data set [2] (Recovery, week 18), the histologic fibrosis score entry is “able to decrease; also recorded: improved” and the histologic inflammation score entry is “able to decrease; also recorded: improved”. Besides, the “liver blood tests and histology” value in data set [2] (proglumide for 6 weeks while continuing the CDE diet) was “improved significantly”. Moreover, the “abnormalities in hepatic blood tests or weight” value in data set [3] (control diet with proglumide vs untreated drinking water) is recorded as “no evidence of abnormalities”. The body weight entry in data set [3] (control diet, proglumide water vs untreated water) is given as “did not weigh more”. Moreover, the liver histology entry in data set [3] (control diet, proglumide water vs untreated water, week 18) was “no evidence of NASH; also recorded: No differences”.
As for Vitamin E, the reversal of fibrosis entry in data set [4] is given as “neither compound statistically reversed fibrosis”.

Source of the values: US12251364B2, “Treating non-alcoholic steatohepatitis with cck inhibitors” (priority 2018, dated 2025).
